Assay results: patent US20060141587A1, “Process for the preparation of L-3, 4-dihydroxyphenylalanine by aerobic fermentation of a microorganism” (DSM IP Assets B.V., priority 2002, published 2006)

Key:
[1] = Storage stability of L-dopa in fermentation broth, extracted water phase and reextraction medium (reactive extraction, HPLC); type: physicochemical; conditions: for change of L-dopa concentration during storage: room temperature, up to 600 h; for relative L-dopa concentration of untreated fermentation broth (sample A, pH = 7.5): pH 7.5, stored at room temperature; for relative L-dopa concentration of water phase of fermentation broth extracted by kerosene/D2EHPA (sample B, pH acidic): stored at room temperature; for relative L-dopa concentration of re-extracted organic phase by KCl (sample C, pH = 6.3): pH 6.3, stored at room temperature
Experimental: (§1) To perform the HPLC analysis, the HPLC 1100 system of Aegilent (Waldbronn, Germany) with a Diode Array Detector was used. The compounds were measured at a wavelength of 200 nm. A Nucleosil-120-5-C18 column (250×4 mm) from Macherey-Nagel was used as the solid phase. The column was eluted using a gradient starting with eluent A (10 mM H3PO4) and eluent B (100% acetonitril). Gradient: 0 min 2% B, 25 min up to 90% B, 27 min to 30 min 2% B. The elution rate was set at 1.2 ml/min, the column temperature was set at 40° C.
A sample of the fermentation broth in which L-dopa is present, prepared as described in example 6, which had been adjusted to pH 7,5 (sample A), was used. 5 ml kerosene containing 10% D2EHPA (pH acidic) was mixed vigorously with the same volume of sample A for 30 seconds on a vortex mixer. After separation of the two phases (about 10 minutes) the water phase containing L-dopa, the extraction medium (sample B) was stored at room temperature. L-dopa dissolved in the organic phase was reextracted by mixing 2 ml of the organic phase with 1 ml of 1 M KCl (pH=6.3) by shaking vigorously for 30s. After separation of the two phases (about 10 minutes), the water phase containing L-dopa, the reextraction medium (sample C) was stored at room temperature. The samples A, B and C were stored at room temperature for 600 hours and L-dopa concentrations were determined at several points in time (up to 600 hours). L-dopa concentrations were determined by HPLC analysis as a function of time (see: Table 3).

[2] = Stability of L-dopa in fermentation broth adjusted to different pH, stored at room temperature (HPLC); type: physicochemical; conditions: for L-dopa concentration, fermentation broth at pH 4.5 (sample 4): pH 4.5, room temperature; for L-dopa concentration, fermentation broth at pH 4.5 (sample 4) / L-dopa concentration, fermentation broth at pH 5.5 (sample 3) / L-dopa concentration, fermentation broth at pH 6.5 (sample 2) / L-dopa concentration, fermentation broth at pH 7.5 (sample 1): broth at pH 4.5 related to 10; for L-dopa concentration, fermentation broth at pH 5.5 (sample 3): pH 5.5, room temperature; for L-dopa concentration, fermentation broth at pH 6.5 (sample 2): pH 6.5, room temperature; for L-dopa concentration, fermentation broth at pH 7.5 (sample 1): pH 7.5, room temperature
Experimental: as §1
A sample of the fermentation broth in which L-dopa is present, prepared as described in example 6, which had been adjusted to pH 7.5 (sample 1), pH 6.5 (sample 2), pH 5.5 (sample 3) and pH 4.5 (sample 4) was used. The samples 1, 2, 3 and 4 were stored at room temperature for 600 hours and L-dopa concentrations were determined at several points in time (up to 600 hours). L-dopa concentrations were determined by HPLC analysis as a function of time (see: Table 4) with the […], i.e. fermentation broth at pH 4.5, related to 10.

[3] = Stability of L-dopa during fed-batch fermentation with and without pH-shift; type: physicochemical, Escherichia coli
Experimental: Cultivations in a fermentor were conducted in a 2.0 L bioreactor (Labfors, Infors; Switzerland) with 10% inoculation; which was cultivated at 33° C. The cultivation started at pH 6.7. The mineral fermentation medium (see composition above) was directly sterilized in the bioreactor together with the calibrated pH- and Oxygen-sensors.
pH was controlled by 17.5% NH4OH (1:2 diluted) and a 5 N KOH solution. A separate glucose feed (500 g·^−1) was started when the OD620nm was higher than 5. At OD620nm 10, which was reached after about 14 hours Isopropyl-beta-D-thiogalactopyranoside (IPTG) was added to a final concentration of 0.1 mM. […]
Biomass (OD620nm) and L-dopa concentrations were determined by HPLC analysis (see example 5 for HPLC conditions) as a function of time (see: Table 1). The L-dopa concentration at 43 hours was related to 10.
A fermentation was performed describes as in example 6 with the following differences:
At OD620nm 5 (reached after 7 hours) IPTG was added.
The L-dopa concentration reached after 32 hours was related to 10.

## N[C@@H](Cc1ccc(O)c(O)c1)C(=O)O [L-dopa, L-3,4-dihydroxyphenylalanine]
[1]; after extraction of the broth with kerosene/D2EHPA (sample B, acidic pH)
  change of L-dopa concentration during storage: decrease of concentration of L-dopa was nearly prevented
[1]; after re-extraction with KCl (sample C, pH 6.3)
  change of L-dopa concentration during storage: no decrease of L-dopa concentration was observed
[1]; fermentation broth without kerosene/D2EHPA extraction (sample A, pH 7.5)
  change of L-dopa concentration during storage: decreases during the storage time
[1]; 24 h
  relative L-dopa concentration of untreated fermentation broth (sample A, pH = 7.5): 0.7
  relative L-dopa concentration of water phase of fermentation broth extracted by kerosene/D2EHPA (sample B, pH acidic): 0.8
  relative L-dopa concentration of re-extracted organic phase by KCl (sample C, pH = 6.3): 0.3
[1]; 96 h
  relative L-dopa concentration of untreated fermentation broth (sample A, pH = 7.5): 0.7
  relative L-dopa concentration of water phase of fermentation broth extracted by kerosene/D2EHPA (sample B, pH acidic): 0.7
  relative L-dopa concentration of re-extracted organic phase by KCl (sample C, pH = 6.3): 0.3
[1]; 168 h
  relative L-dopa concentration of untreated fermentation broth (sample A, pH = 7.5): 0.6
  relative L-dopa concentration of water phase of fermentation broth extracted by kerosene/D2EHPA (sample B, pH acidic): 0.7
  relative L-dopa concentration of re-extracted organic phase by KCl (sample C, pH = 6.3): 0.3
[1]; 336 h
  relative L-dopa concentration of untreated fermentation broth (sample A, pH = 7.5): 0.5
  relative L-dopa concentration of water phase of fermentation broth extracted by kerosene/D2EHPA (sample B, pH acidic): 0.8
  relative L-dopa concentration of re-extracted organic phase by KCl (sample C, pH = 6.3): 0.4
[1]; 408 h
  relative L-dopa concentration of untreated fermentation broth (sample A, pH = 7.5): 0.4
  relative L-dopa concentration of water phase of fermentation broth extracted by kerosene/D2EHPA (sample B, pH acidic): 0.7
  relative L-dopa concentration of re-extracted organic phase by KCl (sample C, pH = 6.3): 0.4
[1]; 504 h
  relative L-dopa concentration of untreated fermentation broth (sample A, pH = 7.5): 0.4
  relative L-dopa concentration of water phase of fermentation broth extracted by kerosene/D2EHPA (sample B, pH acidic): 0.8
  relative L-dopa concentration of re-extracted organic phase by KCl (sample C, pH = 6.3): 0.4
[1]; 600 h
  relative L-dopa concentration of untreated fermentation broth (sample A, pH = 7.5): 0.3
  relative L-dopa concentration of water phase of fermentation broth extracted by kerosene/D2EHPA (sample B, pH acidic): 0.7
  relative L-dopa concentration of re-extracted organic phase by KCl (sample C, pH = 6.3): 0.4
[2]; 24 h
  L-dopa concentration, fermentation broth at pH 4.5 (sample 4): 10
  L-dopa concentration, fermentation broth at pH 5.5 (sample 3): 9
  L-dopa concentration, fermentation broth at pH 6.5 (sample 2): 7
  L-dopa concentration, fermentation broth at pH 7.5 (sample 1): 6
[2]; 96 h
  L-dopa concentration, fermentation broth at pH 4.5 (sample 4): 10
  L-dopa concentration, fermentation broth at pH 5.5 (sample 3): 9
  L-dopa concentration, fermentation broth at pH 6.5 (sample 2): 7
  L-dopa concentration, fermentation broth at pH 7.5 (sample 1): 6
[2]; 168 h
  L-dopa concentration, fermentation broth at pH 4.5 (sample 4): 10
  L-dopa concentration, fermentation broth at pH 5.5 (sample 3): 9
  L-dopa concentration, fermentation broth at pH 6.5 (sample 2): 7
  L-dopa concentration, fermentation broth at pH 7.5 (sample 1): 5
[2]; 336 h
  L-dopa concentration, fermentation broth at pH 4.5 (sample 4): 10
  L-dopa concentration, fermentation broth at pH 5.5 (sample 3): 9
  L-dopa concentration, fermentation broth at pH 6.5 (sample 2): 5
  L-dopa concentration, fermentation broth at pH 7.5 (sample 1): 4
[2]; 408 h
  L-dopa concentration, fermentation broth at pH 4.5 (sample 4): 10
  L-dopa concentration, fermentation broth at pH 5.5 (sample 3): 9
  L-dopa concentration, fermentation broth at pH 6.5 (sample 2): 5
  L-dopa concentration, fermentation broth at pH 7.5 (sample 1): 3
[2]; 504 h
  L-dopa concentration, fermentation broth at pH 4.5 (sample 4): 10
  L-dopa concentration, fermentation broth at pH 5.5 (sample 3): 8
  L-dopa concentration, fermentation broth at pH 6.5 (sample 2): 4
  L-dopa concentration, fermentation broth at pH 7.5 (sample 1): 3
[2]; 600 h
  L-dopa concentration, fermentation broth at pH 4.5 (sample 4): 10
  L-dopa concentration, fermentation broth at pH 5.5 (sample 3): 8
  L-dopa concentration, fermentation broth at pH 6.5 (sample 2): 4
  L-dopa concentration, fermentation broth at pH 7.5 (sample 1): 2
[2]; pH 7.5 to 4.5, room temperature, up to 600 h
  effect of pH of the fermentation broth on stability of L-dopa: lower pH values of the fermentation broth increase the stability of L-dopa
[3]; fermentation at pH 6.7, no pH-shift
  stability of L-dopa in the fermentation: less stable
[3]; fermentation with pH-shift from pH 6.7 to pH 5.8
  stability of L-dopa in the fermentation: stable
